Measured values from US20230165970A1, “COMPOSITIONS AND METHODS FOR THE TREATMENT OF BACTERIAL INFECTIONS” (priority 2017, published 2023).
In brackets after ≈: the same amount, converted by molar mass. Read-outs that look alike come from different tables or passages of the source. *1 amine or outer side, *2 acyl side, *3 side chain or, on linkers, in order; H or OH if unused. Where a SMILES comes first, the peptide text is derived from it. Bridges are numbered along the chain shown (N, C = ends). Roman numbers before positions name the chains, in order. [ ]: non-standard residue; d: D form. The star is where a group is joined. ξ: configuration not given here. X8 = C#CCOCCOCCOCCOCCN1CCN(C2C[C@@H](C(=O)[*:1])[C@H](C(=O)[*:2])C2)CC1; X2 = O=C([C@@H](N[*:1])[C@H](O)CCC(F)(F)F)[*:2]; Propargyl(OCH2CH2)4CO = C#CCOCCOCCOCCOCCC(=O)*; X11 = CCCCCCCC[C@@H](O)[C@H](N[*:1])C(=O)[*:2]; Aoc(2) = CCCCCC[C@H](N)C(=O)O; hLeu = CC(C)CC[C@H](N)C(=O)O; X7 = NCCN(NC(=O)[*:2])[*:1]; Nle = CCCC[C@H](N)C(=O)O; ξF = NC(Cc1ccccc1)C(=O)O; Dab = NCC[C@H](N)C(=O)O; ξT = CC(O)C(N)C(=O)O; azaGly = NNC(=O)O

What was measured:
Pa 27853 = type: cell-based, Pseudomonas aeruginosa
Method: (§1) Briefly, stock solutions of all antibacterial agents were prepared fresh in appropriate solvents (i.e. PBS, pH 7.4, DMSO, DI, etc.). Stock concentrations for drug conjugates were made at 12.5× the highest final assay concentration. All were serially diluted 2-fold, 8 or 12 times in a 96-well PCR plate (VWR cat. no. 83007-374). Bacterial cell suspensions generated from Mueller-Hinton agar (MHA) plate cultures were prepared in 0.85% saline and adjusted to ˜0.1 OD600 nm. […] For the conjugates, 92 μL of each cell suspension in RPMI B were added in the same 96-well plate assay format. […] Compounds were tested against a 14-strain panel comprised of E. coli (Ec), A. baumannii (Ab), P. aeruginosa (Pa), and K. pneumoniae (Kp) that were obtained from ATCC (Ec 25922, Ec 2489, Ab 19606, Pa 27853, Pa PAO1, Kp 43816, Kp 10031), Centers for Disease Control and Prevention (Ec AR0349), BEI Resources (Ab AB5075), Micromyx LLC (Ab 8990, Kp 6951), and Belgian Coordinated Collections of Microorganisms (Pa LES431) or generated in-house (Ec 25922 64X-1). […] E. coli strain ATCC 25922 and P. aeruginosa strain LES431 were run in the presence and absence of 50% heat-inactivated fetal bovine serum (FBS; Sigma, cat. no. F4135-100 mL). Plates were mixed by shaking then incubated at 35° C. overnight (16-20 h).

Pa PAO1 = type: cell-based, Pseudomonas aeruginosa
Method: as §1

Pa LES431 = type: cell-based, Pseudomonas aeruginosa
Method: as §1

Ab 8990 (COL^R) = type: cell-based, Acinetobacter baumannii; conditions: Ab 8990 (COL^R); media CA-MHB
Method: as §1

Ab AB5075 = type: cell-based, Acinetobacter baumannii
Method: as §1

Kp 43816 = type: cell-based, Klebsiella pneumoniae
Method: as §1

Kp 10031 = type: cell-based, Klebsiella pneumoniae
Method: as §1

Kp 6951 (COL^R) = type: cell-based, Klebsiella pneumoniae; conditions: Kp 6951 (COL^R); media CA-MHB
Method: as §1

LPS from E. coli O111:B4 = assay: LPS binding/neutralization by Limulus Amebocyte Lysate (LAL) assay; type: biochemical; conditions: LPS 1-10,000 ng/mL, test article 0.25-10 μM; for % LPS neutralization of TM: sum of AUCs relative to maximal AUC (Table 14)
Method: The LAL assay (Charles River) was used to determine the binding affinity of test articles to LPS.
(§2) For the assay, 25 μL purified LPS from E. coli O111:1B4 (Sigma) at doses ranging from 1-10,000 ng/mL were incubated with 25 μL of test article at concentrations ranging from 0.25-10 NM. After 5 min incubation at 37° C., 50 μL of LAL reagent, which reacts with lipid A portion from LPS, was added to corresponding wells. After 15 min, absorbance at 405 nm was read on EnSpire plate reader (Perkin Elmer). The % LPS neutralization is calculated relative to a PBS control (background) and LPS control at each concentration (positive control).
LPS neutralization=(1−(absorbance test article−PBS with LAL reagent)/(absorbance no test article−PBS with LAL reagent))×100
To obtain a single value of LPS neutralization for each test article, the area under the curve (AUC) for dose-response of test articles from […] for each LPS concentration was calculated using Prism 7 software. The % LPS neutralization is the sum of the AUCs for each LPS concentration determined relative to the maximal AUC achievable×100.
as §2, with “O111:B4” for “O111:1B4”, “μM.” for “NM.”

[1] = tested on: Ab AB58705 (COL^R) IpxD, mut. (no LPS); type: cell-based, Acinetobacter baumannii; conditions: media CA-MHB
Ab 19606 (COLhet^R) = type: cell-based, Acinetobacter baumannii; conditions: media CA-MHB
Method: (§3) Briefly, stock solutions of all antibacterial agents were prepared fresh in appropriate solvents (i.e. PBS, pH 7.4, DMSO, DI, etc.). Stock concentrations for drug conjugates were made at 12.5× the highest final assay concentration. All were serially diluted 2-fold, 8 or 12 times in a 96-well PCR plate (VWR cat. no. 83007-374). Bacterial cell suspensions generated from Mueller-Hinton agar (MHA) plate cultures were prepared in 0.85% saline and adjusted to ˜0.1 OD600 nm. Next, cell suspensions were diluted 1:200 in RPMI containing 5% Luria Broth (LB) to improve bacterial growth (BD Difco, cat. no. 244620) to a concentration of ˜5×10^5 CFU (colony-forming units)/mL. Due to poor solubility in Mueller-Hinton broth media, drug conjugates were evaluated in RPMI 1640 medium (+) L-glutamine, (+) sodium bicarbonate, pH 7.4 (“RPMI B”; Gibco, cat. no. 11875-085) as has been described as a more physiologically-relevant media for susceptibility testing of antibacterial compounds (1). For the conjugates, 92 μL of each cell suspension in RPMI B were added in the same 96-well plate assay format. […] Compounds were tested against a 14-strain panel comprised of E. coli (Ec), A. baumannii (Ab), P. aeruginosa (Pa), and K. pneumoniae (Kp) that were obtained from ATCC (Ec 25922, Ec 2489, Ab 19606, Pa 27853, Pa PAO1, Kp 43816, Kp 10031), Centers for Disease Control and Prevention (Ec AR0349), BEI Resources (Ab AB5075), Micromyx LLC (Ab 8990, Kp 6951), and Belgian Coordinated Collections of Microorganisms (Pa LES431) or generated in-house (Ec 25922 64X-1). […] E. coli strain ATCC 25922 and P. aeruginosa strain LES431 were run in the presence and absence of 50% heat-inactivated fetal bovine serum (FBS; Sigma, cat. no. F4135-100 mL). Plates were mixed by shaking then incubated at 35° C. overnight (16-20 h).

Ec 25922 64X-1 (COL^R) = type: cell-based, Escherichia coli; conditions: media CA-MHB
Method: as §3

Ec AR0349 (mcr-1, COL^R) = type: cell-based, Escherichia coli; conditions: media CA-MHB
Method: as §3

Ec 2469 = type: cell-based, Escherichia coli
Method: as §1

Ec 25922 = type: cell-based, Escherichia coli
Method: as §1

Sa RN = type: cell-based

SMILES | MIC (Pa 27853) [µg/mL] | MIC (Pa PAO1; PAO1) [µg/mL] | MIC (Pa LES431) [µg/mL] | MIC (Ab 8990 (COL^R)) [µg/mL] | MIC (Ab AB5075) [µg/mL] | MIC (Kp 43816) [µg/mL] | MIC (Kp 10031) [µg/mL] | MIC (Kp 6951 (COL^R)) [µg/mL] | MIC (Ab 19606 (COLhet^R)) [µg/mL] | MIC (Ec 25922 64X-1 (COL^R)) [µg/mL] | MIC (Ec AR0349 (mcr-1, COL^R)) [µg/mL] | MIC (Ec 2469) [µg/mL] | MIC (Ec 25922) [µg/mL] | MIC (Sa RN) [µg/mL] | % LPS neutralization of TM (LPS from E. coli O111:B4) [%] | also measured
C#CCOCCOCCOCCOCCC(=O)N[C@@H](CCC(C)C)C(=O)N[C@@H](CCN)C(=O)N[C@H](C(=O)N(CCN)NC(=O)N[C@H]1CCNC(=O)[C@H]([C@@H](C)O)NC(=O)[C@H](CCN)NC(=O)[C@H](CCN)NC(=O)[C@H](CC(C)C)NC(=O)[C@@H](Cc2ccccc2)NC(=O)[C@H](CCN)NC1=O)[C@@H](C)O [Int-126] ({Propargyl(OCH2CH2)4CO}-[hLeu][Dab]T[X7][Dab][Dab][dF]L[Dab][Dab]T; lactam 5-C) | 2 (≈ 1.39 µM) | 2 (≈ 1.39 µM) | 4 (≈ 2.79 µM) | >128 | 2 (≈ 1.39 µM) | 1 (≈ 0.697 µM) | 1 (≈ 0.697 µM) | >128 | 4 (≈ 2.79 µM) | 64 (≈ 44.6 µM) | 8 (≈ 5.58 µM) | 0.5 (≈ 0.349 µM) | 1 (≈ 0.697 µM) | >128 | – | % LPS neutralization (LPS from E. coli O111:B4; sum of AUCs relative to maximal AUC (Table 15)): 19.7%; MIC [1]: 64 µg/mL (≈ 44.6 µM)
C#CCOCCOCCOCCOCCC(=O)N[C@@H](CCN)C(=O)N[C@H](C(=O)N[C@@H](CCN)C(=O)N[C@H]1CCNC(=O)[C@H]([C@@H](C)O)NC(=O)[C@H](CCN)NC(=O)[C@H](CCN)NC(=O)[C@H](CC(C)C)NC(=O)[C@@H](Cc2ccccc2)NC(=O)[C@H](CCN)NC1=O)[C@H](O)CCCCCCCC [Int-84] ({Propargyl(OCH2CH2)4CO}-[Dab][X11][Dab][Dab][Dab][dF]L[Dab][Dab]T; lactam 4-C) | – | – | – | – | – | – | – | – | – | – | – | – | – | – | 53.7 | –
C#CCOCCOCCOCCOCCN1CCN(C2C[C@@H](C(=O)N[C@@H](CCCC)C(=O)N[C@@H](CCN)C(=O)N[C@H](C(=O)NNC(=O)N[C@H]3CCNC(=O)[C@H]([C@@H](C)O)NC(=O)[C@H](CCN)NC(=O)[C@H](CCN)NC(=O)[C@H](CC(C)C)NC(=O)C(Cc4ccccc4)NC(=O)[C@H](CCN)NC3=O)[C@@H](C)O)[C@H](C(=O)N[C@@H](CCCC)C(=O)N[C@@H](CCN)C(=O)N[C@H](C(=O)NNC(=O)N[C@H]3CCNC(=O)C(C(C)O)NC(=O)[C@H](CCN)NC(=O)[C@H](CCN)NC(=O)[C@H](CC(C)C)NC(=O)[C@@H](Cc4ccccc4)NC(=O)[C@H](CCN)NC3=O)[C@@H](C)O)C2)CC1 (stereo partly drawn) [Int-105] (I: [Nle][Dab]T[azaGly][Dab][Dab][dF]L[Dab][Dab][ξT] / II: [Nle][Dab]T[azaGly][Dab][Dab][ξF]L[Dab][Dab]T; lactam I:5-I:C, II:5-II:C; linker I:N-II:N via X8) | – | – | – | >128 | – | – | – | 32 (≈ 11.9 µM) | 2 (≈ 0.744 µM) | 4 (≈ 1.49 µM) | 4 (≈ 1.49 µM) | – | – | – | 33.2 | MIC (Pa 27853; Pa 27853, media CA-MHB): 4 µg/mL (≈ 1.49 µM); MIC (Pa PAO1; Pa PAO1, media CA-MHB): 4 µg/mL (≈ 1.49 µM); MIC (Pa LES431; Pa LES431 + FBS (50%, heat-inactivated), media CA-MHB): 16 µg/mL; MIC (Pa LES431; Pa LES431, media CA-MHB): 2 µg/mL (≈ 0.744 µM); MIC (Ab AB5075; Ab AB5075, media CA-MHB): 2 µg/mL (≈ 0.744 µM); MIC (Kp 43816; Kp 43816, media CA-MHB): 2 µg/mL (≈ 0.744 µM); MIC (Kp 10031; Kp 10031, media CA-MHB): 2 µg/mL (≈ 0.744 µM); MIC (Ec 2469; Ec 2469, media CA-MHB): 2 µg/mL (≈ 0.744 µM); MIC (Ec 25922; Ec 25922 + FBS (50%, heat-inactivated), media CA-MHB): 0.5 µg/mL; MIC (Ec 25922; Ec 25922, media CA-MHB): 2 µg/mL (≈ 0.744 µM)
C#CCOCCOCCOCCOCCC(=O)N[C@@H](CCCCCC)C(=O)N[C@@H](CCN)C(=O)N[C@H](C(=O)NNC(=O)N[C@H]1CCNC(=O)[C@H]([C@@H](C)O)NC(=O)[C@H](CCN)NC(=O)[C@H](CCN)NC(=O)[C@H](CC(C)C)NC(=O)[C@@H](Cc2ccccc2)NC(=O)[C@H](CCN)NC1=O)[C@H](O)CCC(F)(F)F [Int-119] ({Propargyl(OCH2CH2)4CO}-[Aoc(2)][Dab][X2][azaGly][Dab][Dab][dF]L[Dab][Dab]T; lactam 5-C) | 4 (≈ 2.69 µM) | 16 (≈ 10.8 µM) | 4 (≈ 2.69 µM) | – | 1 (≈ 0.673 µM) | 2 (≈ 1.35 µM) | 2 (≈ 1.35 µM) | – | – | – | – | 2 (≈ 1.35 µM) | 2 (≈ 1.35 µM) | >128 | – | –
